{"source": "patent US8685924B2", "about": "“Preventives/remedies for stress urinary incontinence and method of screening the same” (Takeda Pharmaceutical Company Limited, priority 2004, dated 2014)", "test_system": "urethane-anesthetized female rats", "experiment": "Leak point pressure by abdominal wall electrostimulation, rats with nerve to iliococcygeus/pubococcygeus muscle transected on one side (Example 2)", "type": "in vivo, rat", "settings": "for leak point pressure after drug administration / leak point pressure increase / leak point pressure before drug administration: i.v., mean ± SEM; for leak point pressure before drug administration: baseline", "protocol": "SD female rats (body weight 180-350 g) were anesthetized with urethane (Wako Pure Chemical Industries, Ltd.), and the spinal cord was cut at T8-9 level to eliminate the reflex voiding. In addition, the nerve to the iliococcygeus muscle/pubococcygeus muscle on the one side was transected. During operation, halothane (Takeda Pharmaceutical Company Limited) anesthesia was added when necessary. A catheter (PE-90, Clay Adams) was inserted into the bladder and secured with a ligature, and the incised part of each of the abdominal muscle and skin was closed with sutures. The abdominal skin near the diaphragm was incised at two left and right positions to newly expose the abdominal muscle. An Evans Blue dye (Merck) solution was injected into the bladder, and the bladder volume was adjusted to 0.2-0.3 ml. The bladder catheter was connected to a pressure transducer, and the signals of the transducer were sent to a computer via an amplifier (blood pressure amplification unit AP-641G; NIHON KOHDEN) and an analog-to-digital converter (BIOPAC; MP100), and recorded on a hard disc. The data were analyzed on a computer using software (BIOPAC; AcqKnowledge). The exposed abdominal muscle was electrostimulated using an electrostimulator (SEN-3301; NIHON KODEN) and an isolator (SS-202J; NIHON KODEN), and the presence or absence of incontinence from the urethral orifice was observed. The electrostimulation was applied at a voltage of 3-50 V, duration of 0.05-0.5 milisec, and frequency 50 Hz for 1 sec, thereby gradually increasing the intravesical pressure. The peak intravesical pressure during stimulation of the abdominal wall was measured and, of the trials with observed incontinence, the lowest peak intravesical pressure was defined as the leak point pressure. The leak point pressure was compared before and after the duloxetine and midodrine administration. Duloxetine was dissolved in […] (DMA)/polyethylene glycol 400 (PEG400) (1:1), and intravenously administered at 0.5 ml/kg. Midodrine (hydrochloride, Sigma) was dissolved in saline and intravenously administered at 1 ml/kg."}
{"smiles": "CNCC[C@H](Oc1cccc2ccccc12)c1cccs1", "note": "[duloxetine]", "values": [{"measurement": "leak point pressure after drug administration", "setting": "0.3 mg/kg", "result": "48.3 ± 7.9", "unit": "cmH2O"}, {"measurement": "leak point pressure increase", "setting": "0.3 mg/kg", "result": "2.4 ± 4.3", "unit": "cmH2O"}, {"measurement": "leak point pressure after drug administration", "setting": "1 mg/kg", "result": "53.0 ± 4.8", "unit": "cmH2O"}, {"measurement": "leak point pressure increase", "setting": "1 mg/kg", "result": "8.1 ± 2.3", "unit": "cmH2O"}, {"measurement": "leak point pressure after drug administration", "setting": "3 mg/kg", "result": "61.4 ± 3.9", "unit": "cmH2O"}, {"measurement": "leak point pressure increase", "setting": "3 mg/kg", "result": "12.9 ± 3.2", "unit": "cmH2O"}, {"measurement": "leak point pressure after drug administration", "setting": "10 mg/kg", "result": "53.0 ± 8.8", "unit": "cmH2O"}, {"measurement": "leak point pressure increase", "setting": "10 mg/kg", "result": "13.0 ± 2.5", "unit": "cmH2O"}, {"measurement": "leak point pressure before drug administration", "setting": "dose group 0.3 mg/kg", "result": "45.9 ± 5.4", "unit": "cmH2O"}, {"measurement": "leak point pressure before drug administration", "setting": "dose group 1 mg/kg", "result": "44.9 ± 5.9", "unit": "cmH2O"}, {"measurement": "leak point pressure before drug administration", "setting": "dose group 3 mg/kg", "result": "48.5 ± 4.8", "unit": "cmH2O"}, {"measurement": "leak point pressure before drug administration", "setting": "dose group 10 mg/kg", "result": "40.0 ± 7.3", "unit": "cmH2O"}, {"measurement": "effect on leak point pressure, comparison before and after administration", "setting": "intravenously administered", "result": "significant increase in the leak point pressure"}]}
